The record followed here is US9670221B2, “Furopyridines as bromodomain inhibitors” (GlaxoSmithKline Intellectual Property (No.2) Limited, priority 2013, dated 2017).

Where a name gives a salt, the structure may show the parent alone. A value given as a limit tells only on which side of the number the result lay.

Test [1] relates to Bromodomains BRD2, BRD3, BRD4 and BRDT (BD1/BD2 single residue mutants). Briefly: Binding of the fluoroligand to mutated versus non-mutated bromodomain. On the set-up: species or system Human. Particulars: single residue mutations in the acetyl lysine binding pocket. As for the experimental part:
Binding was assessed using a time resolved fluorescent resonance energy transfer binding assay. This utilises a 6 His purification tag at the N-terminal of the proteins as an epitope for an anti-6 His antibody labeled with Europium chelate (PerkinElmer AD0111) allowing binding of the Europium to the proteins which acts as the donor fluorophore. A small molecule, high affinity binder of the bromodomains BRD2, BRD3, BRD4 and BRDT has been labeled with Alexa Fluor647 (Reference Compound X) and this acts as the acceptor in the FRET pair.
The binding of the compounds of formula (I) to Bromodomains BRD2, BRD3, BRD4 and BRDT was assessed using mutated proteins to detect differential binding to either Binding Domain 1 (BD1) or Binding Domain 2 (BD2) on the bromodomain. These single residue mutations in the acetyl lysine binding pocket greatly lower the affinity of the fluoroligand (Reference Compound X) for the mutated domain (>1000 fold selective for the non-mutated domain). Therefore in the final assay conditions, binding of the fluoroligand to the mutated domain cannot be detected and subsequently the assay is suitable to determine the binding of compounds to the single non-mutated bromodomain. […]

The target of the next test is T1, BRD4 BD1 (Homo sapiens, UniProt O60885, Y390A).
T1 construct: BRD4 (1-477) (Y97A) and (Y390A); made in house; host or cells: E. coli (pET15b vector)
Briefly: TR-FRET binding assay, BRD4 BD1 (mutant protein). The settings on record: BRD4 (1-477) mutant, 10 nM protein, read-out: pIC50 in the BRD4 BD1 assay (converted). The method, boiled down: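 N-His-tagged human BRD4 (1-477) carrying Y390A, so binding reflects BD1 only, at 10 nM with Alexa Fluor647 ligand at Kd in HEPES pH7.4 buffer, 0.5% DMSO, 30 min RT, then 1.5 nM Eu anti-His. TR-FRET 665/615 ratio normalized to controls; pIC50 from four-parameter fit.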

For `COc1ccc2c(c1)C(c1ccc(Cl)cc1)=N[C@@H](CC(=O)NCCCCCNC(=O)CCCCCC1(C)/C(=C/C=C/C=C/C3=[N+](CCCCS(=O)(=O)O)c4ccc(S(=O)(=O)O)cc4C3(C)C)N(CCCCS(=O)(=O)[O-])c3ccc(S(=O)(=O)O)cc31)c1nnc(C)n1-2` (stereo partly shown) [Reference Compound X], in test [1], the “selectivity of the fluoroligand for the non-mutated domain over the mutated domain” value is on record as over 1000 fold.

`C[C@@H]1CN(S(C)(=O)=O)CCN1Cc1cc2c(=O)n(C)cc(-c3ccnc(OCCN4CCCC4=O)c3)c2o1` [Example 35, (R)-5-methyl-2-((2-methyl-4-(methylsulfonyl)piperazin-1-yl)methyl)-7-(2-(2-(2-oxopyrrolidin-1-yl)ethoxy)pyridin-4-yl)furo[3,2-c]pyridin-4(5H)-one]: at BRD4 BD1, the IC50 is at most 10 nM. For `Cn1cc(-c2ccncc2OCC2CC2)c2oc(CN3CCN(S(C)(=O)=O)CC3)cc2c1=O` [Example 31, 7-(3-(cyclopropylmethoxy)pyridin-4-yl)-5-methyl-2-((4-(methylsulfonyl)piperazin-1-yl)methyl)furo[3,2-c]pyridin-4(5H)-one], the IC50 on BRD4 BD1 is at most 100 nM. Regarding `CN1CCCN(Cc2cc3c(=O)n(C)cc(-c4ccncc4OCC4CC4)c3o2)CC1` [Example 56, 7-(3-(cyclopropylmethoxy)pyridin-4-yl)-5-methyl-2-((4-methyl-1,4-diazepan-1-yl)methyl)furo[3,2-c]pyridin-4(5H)-one hydrochloride], the IC50 at BRD4 BD1 is at most 100 nM.

For `CC(=O)N(C)c1cc(-c2cn(C)c(=O)c3cc(CN4CCN(S(C)(=O)=O)C[C@H]4C)oc23)ccn1` [Example 30, (R)—N-methyl-N-(4-(5-methyl-2-((2-methyl-4-(methylsulfonyl)piperazin-1-yl)methyl)-4-oxo-4,5-dihydrofuro[3,2-c]pyridin-7-yl)pyridin-2-yl)acetamide], on BRD4 BD1, the IC50 was at most 100 nM. Take `CC(=O)Nc1cc(-c2cn(C)c(=O)c3cc(CN4CCN(S(C)(=O)=O)CC4)oc23)ccn1` [Example 37, N-(4-(5-methyl-2-((4-(methylsulfonyl)piperazin-1-yl)methyl)-4-oxo-4,5-dihydrofuro[3,2-c]pyridin-7-yl)pyridin-2-yl)acetamide]: the IC50 at BRD4 BD1 was at most 100 nM. Same read-out and setting: the result for `CC(=O)Nc1cncc(-c2cn(C)c(=O)c3cc(CN4CCN(S(C)(=O)=O)C[C@H]4C)oc23)c1` [Example 38, (R)—N-(5-(5-methyl-2-((2-methyl-4-(methylsulfonyl)piperazin-1-yl)methyl)-4-oxo-4,5-dihydrofuro[3,2-c]pyridin-7-yl)pyridin-3-yl)acetamide] reads at most 100 nM. For the compound `C[C@@H]1CN(S(C)(=O)=O)CCN1Cc1cc2c(=O)n(C)cc(-c3ccncc3NCC3CC3)c2o1` [Example 40, (R)-7-(3-((cyclopropylmethyl)amino)pyridin-4-yl)-5-methyl-2-((2-methyl-4-(methylsulfonyl)piperazin-1-yl)methyl)furo[3,2-c]pyridin-4(5H)-one], the IC50 on BRD4 BD1 was at most 100 nM. Turning to `Cl.[2H]C([2H])([2H])n1cc(-c2ccnc(NC(C)=O)c2)c2oc(CN3CCN(S(C)(=O)=O)C[C@H]3C)cc2c1=O` [Example 62, (R)-N-(4-(5-(^2H3)methyl-2-((2-methyl-4-(methylsulfonyl)piperazin-1-yl)methyl)-4-oxo-4,5-dihydrofuro[3,2-c]pyridin-7-yl)pyridin-2-yl)acetamide], at BRD4 BD1, the IC50 is at most 100 nM. As to `C[C@@H]1CN(S(C)(=O)=O)CCN1Cc1cc2c(=O)n(C)cc(-c3ccncc3OCC3CC3)c2o1` [Example 32, (R)-7-(3-(cyclopropylmethoxy)pyridin-4-yl)-5-methyl-2-((2-methyl-4-(methylsulfonyl)piperazin-1-yl)methyl)furo[3,2-c]pyridin-4(5H)-one], the IC50 on BRD4 BD1 is at most 10 nM. With `CCOc1cnccc1-c1cn(C)c(=O)c2cc(CN3CCN(S(C)(=O)=O)C[C@H]3C)oc12` [Example 52, (R)-7-(3-ethoxypyridin-4-yl)-5-methyl-2-((2-methyl-4-(methylsulfonyl)piperazin-1-yl)methyl)furo[3,2-c]pyridin-4(5H)-one], the IC50 at BRD4 BD1 was at most 100 nM. As to `C[C@@H]1CN(S(C)(=O)=O)CCN1Cc1cc2c(=O)n(C)cc(-c3ccncc3OCC3COC3)c2o1` [Example 46, (R)-5-methyl-2-((2-methyl-4-(methylsulfonyl)piperazin-1-yl)methyl)-7-(3-(oxetan-3-ylmethoxy)pyridin-4-yl)furo[3,2-c]pyridin-4(5H)-one], the IC50 at BRD4 BD1 is at most 100 nM. Still for that read-out and setting: the result for `CN1CCN(Cc2cc3c(=O)n(C)cc(-c4ccncc4OCC4CC4)c3o2)CC1=O` [Example 76, 7-(3-(cyclopropylmethoxy)pyridin-4-yl)-5-methyl-2-((4-methyl-3-oxopiperazin-1-yl)methyl)furo[3,2-c]pyridin-4(5H)-one hydrochloride] reads at most 100 nM.
